Results from patent US20120258053A1, “ORAL CARE COMPOSITIONS FOR USE WITH AN ORAL LIGHT DEVICE” (COLGATE-PALMOLIVE COMPANY, priority 2009, published 2012).
“Also recorded” adds a separate entry of the source.

Experiments:
biofilm of A. naeslundi = test: Light-triggered reduction of bacterial biofilm (24 h old); type: cell-based; conditions: for biofilm reduction compared to light alone: 0.1% concentration, in the presence of light; for Percentage Reduction in Biofilm, Light plus photosensitizer: 0.1% dye incubated 2 min prior to irradiation, wavelength given with each dye, 24 J/cm^2 (200 mW/cm^2 @ 2 min)
Method: Bacterial biofilms (24 h old) were treated with the photosensitizers or photo-triggered actives described in the tables below at a concentration less than their minimum inhibitory concentration (MIC). The actives were either pre-incubated before light exposure for 2 s to 15 min, typically less than 2 min, or administered at the same time the biofilm was exposed to the light. The bacteria were irradiated at a set wavelength for 2 s to 15 min (typically less than 2 min) at an energy dose between 1-450 J/cm^2. Optical power densities typically ranged from 1-500 mW/cm^2. Light was either pulsed or provided in one continuous light exposure. Pulsed light treatments were preferred for high optical energy treatments.
On a biofilm of A. naeslundi, the impact of four “photosensitizers” (0.1% concentration) in the presence of light was evaluated. MIC typically ranged from 0.0001% (w/v) to 1% (w/v). The percent biofilm reduction is tabulated below.

[1] = system: TNFα of HEPM cells stimulated by IL-1β; test: Cytokine concentration in IL-1β stimulated cell culture after light irradiation with dye; type: cell-based, human; conditions: 9 mW/cm^2, 1.1 J/cm^2
Method: Cells used in this example include human embryonic palatal mesenchymal (HEPM) cells and oral keratinocytes OBA9 cells. The embodiments also can be used with other cells such as human gingival fibroblasts (HGF). Cells were seeded in 24-well plates and cultured until reaching a confluence above 80%. The confluent-stage cells were treated with stimulants such as IL-1β followed by light irradiation alone, or light irradiation combined with GRAS photosensitizing dye. The cells were either pre-incubated in photosensitizing dye before light exposure, or administered at the same time of light exposure. The cells were incubated in photosensitizing dyes for varied amounts of time, the concentration of photosensitizing dyes were varied, and the cell were irradiated with light for varied amounts of time per exposure, as well as irradiation either one time or multiple times, as described below. After irradiation, the cells were incubated at 37° C. The cell culture media was collected after a certain amount of time for cytokine analysis.
The results tabulated below reveal that visible light (various wavelength, 380-700 nm) alone and photosensitizing dye irradiated with visible light (various wavelength, 380-700 nm) have anti-inflammation effect. […]

| Compound | biofilm reduction compared to light alone (biofilm of A. naeslundi) | Percentage Reduction in Biofilm, Light plus photosensitizer (biofilm of A. naeslundi) | effect on TNFα concentration ([1]; Fast Green 1000 ppm combined with light at 625 nm for 2 minutes) | Cytokine Conc. TNF-α, Il-1β + light + Dye ([1]; HEPM cells, IL-1β stimulated, Fast Green 1000 ppm, 625 nm, 2 minutes, Il-1β alone 9, Il-1β + light 5.8) |
| --- | --- | --- | --- | --- |
| COc1cc(S(=O)(=O)[O-])c(C)cc1N=Nc1c(O)ccc2cc(S(=O)(=O)[O-])ccc12.[Na+].[Na+] [Allura Red, Allura Red AC] | increased biofilm reduction compared to light alone | 55% |  |  |
| O=S(=O)([O-])c1ccc(/N=N/c2cc(S(=O)(=O)[O-])c3ccccc3c2O)c2ccccc12.[Na+].[Na+] [Chromotrope, Chromotrope FB] |  | 18% |  |  |
| CCN(Cc1cccc(S(=O)(=O)[O-])c1)c1ccc(C(=C2C=CC(=[N+](CC)Cc3cccc(S(=O)(=O)[O-])c3)C=C2)c2ccccc2S(=O)(=O)[O-])cc1.[Na+].[Na+] [Erioglaucine, Erioglaucine disodium salt] |  | 41% |  |  |
| CCN(Cc1cccc(S(=O)(=O)[O-])c1)c1ccc(C(=C2C=CC(=[N+](CC)Cc3cccc(S(=O)(=O)[O-])c3)C=C2)c2ccc(O)cc2S(=O)(=O)[O-])cc1.[Na+].[Na+] [Fast Green, Fast Green FCF] | increased biofilm reduction compared to light alone | 43% | can decrease pro-inflammation cytokine TNFα concentration; also recorded: can reduce concentration of TNFα | 3.4 pg/mL |
| O=C1/C(=C2\Nc3ccc(S(=O)(=O)[O-])cc3C2=O)Nc2ccc(S(=O)(=O)[O-])cc21.[Na+].[Na+] [Indigo Carmine] |  | 30% |  |  |
| CN(C)c1ccc(C(=C2C=CC(=[N+](C)C)C=C2)c2c(O)c(S(=O)(=O)[O-])cc3cc(S(=O)(=O)[O-])ccc23)cc1.[Na+] [Lissamine Green B] | increased biofilm reduction compared to light alone | 43% |  |  |
| Cc1cc2nc3c(=O)[nH]c(=O)nc-3n(C[C@H](O)[C@H](O)[C@H](O)CO)c2cc1C [Riboflavin] | increased biofilm reduction compared to light alone | 56% |  |  |
| O=C([O-])C1=NN(c2ccc(S(=O)(=O)[O-])cc2)C(=O)C1N=Nc1ccc(S(=O)(=O)[O-])cc1.[Na+].[Na+].[Na+] (stereo not shown) [Tartrazine] | increased biofilm reduction compared to light alone | 72% |  |  |
| Chlorophyllin sodium copper salt |  | 21% |  |  |
